Results taken from patent US20260374773A1, “MULTI-CYCLIC IRAK AND FLT3 INHIBITING COMPOUNDS AND USES THEREOF” (CHILDREN'S HOSPITAL MEDICAL CENTER, priority 2022, published 2026).

Columns and labels:
[1] = target: T1, FLT3 D835V (Homo sapiens, UniProt P36888, D835V); test: DiscoverX KINOMEscan active site-directed competition binding, FLT3 D835V; conditions: no ATP
T1 sequence (P36888 27-993 D835V): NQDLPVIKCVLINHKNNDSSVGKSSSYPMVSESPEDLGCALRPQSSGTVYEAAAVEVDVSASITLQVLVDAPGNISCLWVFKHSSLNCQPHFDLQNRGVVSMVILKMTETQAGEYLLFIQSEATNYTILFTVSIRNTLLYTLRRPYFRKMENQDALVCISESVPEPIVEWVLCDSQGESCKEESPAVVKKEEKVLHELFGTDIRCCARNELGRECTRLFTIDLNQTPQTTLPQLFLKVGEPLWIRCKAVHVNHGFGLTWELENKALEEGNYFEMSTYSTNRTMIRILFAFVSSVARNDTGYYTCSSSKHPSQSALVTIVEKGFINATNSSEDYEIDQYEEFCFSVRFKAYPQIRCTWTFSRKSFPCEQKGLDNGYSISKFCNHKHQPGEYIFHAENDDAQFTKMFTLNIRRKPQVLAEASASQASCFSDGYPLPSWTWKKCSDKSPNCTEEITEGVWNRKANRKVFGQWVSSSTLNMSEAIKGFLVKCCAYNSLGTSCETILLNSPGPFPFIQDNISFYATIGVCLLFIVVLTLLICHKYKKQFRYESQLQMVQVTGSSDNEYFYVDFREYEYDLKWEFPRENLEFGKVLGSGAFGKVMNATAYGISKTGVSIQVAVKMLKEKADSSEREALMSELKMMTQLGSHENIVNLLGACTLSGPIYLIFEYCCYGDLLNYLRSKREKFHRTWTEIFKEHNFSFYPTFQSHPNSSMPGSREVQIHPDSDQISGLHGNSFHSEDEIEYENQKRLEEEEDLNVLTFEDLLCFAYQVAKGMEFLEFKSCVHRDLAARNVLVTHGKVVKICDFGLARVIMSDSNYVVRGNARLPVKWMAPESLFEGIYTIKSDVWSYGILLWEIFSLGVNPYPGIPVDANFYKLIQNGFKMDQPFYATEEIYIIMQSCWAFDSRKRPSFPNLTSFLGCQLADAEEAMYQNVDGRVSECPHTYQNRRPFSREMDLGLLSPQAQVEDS
Description: (§1) Kinase binding data were obtained for various exemplary compounds prepared according to Examples 1-8 using the DiscoverX KINOMEscan® active site-directed competition binding site-directed assay protocol described below. […] As a result, the data report thermodynamic interaction affinities (Kd values), rather than IC50 values that are dependent on ATP concentrations. The assay uses a DNA-tagged version of the protein kinase, and an immobilized ligand bound to a solid support. Compounds that directly or indirectly prevent kinase binding to the immobilized ligand reduce the amount of kinase captured on the solid support, which is detected using an ultra-sensitive qPCR method. Affinity constants reported from the assay have been reported to be independent of the immobilized ligand used that is coupled to the solid support (See supplemental information in Fabian, M. A. et. al., (2005) Nat. Biotechnol. 23, 329-336; Wodicka, L. M. et. al., (2010) Chem. Biol. 17, 1241-1249.)
(§2) Kinase-tagged T7 phage strains were prepared in an E. coli host derived from the BL21 strain. E. coli were grown to log-phase and infected with T7 phage and incubated with shaking at 32 °C until lysis. The lysates were centrifuged and filtered to remove cell debris. The remaining kinases were produced in HEK-293 cells and subsequently tagged with DNA for qPCR detection. Streptavidin-coated magnetic beads were treated with biotinylated small molecule ligands for 30 minutes at room temperature to generate affinity resins for kinase assays. The liganded beads were blocked with excess biotin and washed with blocking buffer (SeaBlock (Pierce), 1% BSA, 0.05% Tween 20, 1 mM DTT) to remove unbound ligand and to reduce non-specific binding. […] Test compounds were prepared as 111x stocks in 100% DMSO. Kds were determined using an 11-point 3-fold compound dilution series with three DMSO control points. All compounds for Kd measurements are distributed by acoustic transfer (non-contact dispensing) in 100% DMSO. The compounds were then diluted directly into the assays such that the final concentration of DMSO was 0.9%. All reactions were performed in polypropylene 384-well plates. Each was a final volume of 0.02 mL. The assay plates were incubated at room temperature with shaking for 1 hour and the affinity beads were washed with wash buffer (1×PBS, 0.05% Tween 20). The beads were then re-suspended in elution buffer (1×PBS, 0.05% Tween 20, 0.5 μM nonbiotinylated affinity ligand) and incubated at room temperature with shaking for 30 minutes. The kinase concentration in the eluates was measured by qPCR. Binding constants (Kds) were calculated with a standard dose-response curve using the Hill equation. The Hill Slope was set to −1. Curves were fitted using a non-linear least square fit with the Levenberg-Marquardt algorithm.
as §1, with “9-12” for “1-8”
(§3) Kinase-tagged T7 phage strains were prepared in an E. coli host derived from the BL21 strain. […]

[2] = target: T2, IRAK4 (Homo sapiens, UniProt Q9NWZ3); test: DiscoverX KINOMEscan active site-directed competition binding, IRAK4; conditions: no ATP
T2 sequence (Q9NWZ3 1-460): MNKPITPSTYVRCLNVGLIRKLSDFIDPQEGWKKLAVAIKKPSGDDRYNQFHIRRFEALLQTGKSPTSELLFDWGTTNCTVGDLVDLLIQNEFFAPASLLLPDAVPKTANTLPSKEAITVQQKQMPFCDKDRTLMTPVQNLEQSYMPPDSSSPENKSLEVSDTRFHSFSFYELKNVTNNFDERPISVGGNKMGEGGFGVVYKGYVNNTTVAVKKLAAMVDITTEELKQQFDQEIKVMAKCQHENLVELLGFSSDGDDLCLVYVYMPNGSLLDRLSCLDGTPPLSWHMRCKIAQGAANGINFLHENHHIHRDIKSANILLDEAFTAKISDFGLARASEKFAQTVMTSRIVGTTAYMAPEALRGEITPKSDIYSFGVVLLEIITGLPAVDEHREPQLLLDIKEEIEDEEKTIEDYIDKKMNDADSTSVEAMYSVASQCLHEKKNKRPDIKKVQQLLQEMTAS
Description: as §1, §2
as §1, with “9-12” for “1-8”
as §3

Row | SMILES | Kd ([1]; Table 18) | Kd ([2]; Table 18) | Kd ([1]; Table 12) | Kd ([2]; Table 12)
1 | COc1cn2ncc(-c3nc(N[C@H]4CNCC[C@@H]4F)ncc3F)c2nc1C(C)(C)O [Compound 6a, 2-(3-(5-fluoro-2-(((3S,4S)-4-fluoropiperidin-3-yl)amino)pyrimidin-4-yl)-6-methoxypyrazolo[1,5-a]pyrimidin-5-yl)propan-2-ol] | < 0.17 nM | 0.2 nM |  | 
2 | COc1cn2ncc(-c3nc(N[C@@H]4CCCNC4)ncc3F)c2nc1C1CC1 [Compound 14a, (R)-4-(5-cyclopropyl-6-methoxypyrazolo[1,5-a]pyrimidin-3-yl)-5-fluoro-N-(piperidin-3-yl)pyrimidin-2-amine] | < 0.17 nM | < 0.17 nM |  | 
3 | COc1cn2ncc(-c3ccnc(N[C@H]4CNCC[C@@H]4F)n3)c2nc1C1CC1 [Compound 7a, 4-(5-cyclopropyl-6-methoxypyrazolo[1,5-a]pyrimidin-3-yl)-N-((3S,4S)-4-fluoropiperidin-3-yl)pyrimidin-2-amine] | 0.48 nM | 0.36 nM |  | 
4 | COc1cn2ncc(-c3nc(N[C@H]4CNCC[C@@H]4F)c(C#N)cc3F)c2nc1C(C)(C)O [Compound 10, 5-fluoro-2-(((3S,4S)-4-fluoropiperidin-3-yl)amino)-6-(5-(2-hydroxypropan-2-yl)-6-methoxypyrazolo[1,5-a]pyrimidin-3-yl)nicotinonitrile] |  |  | < 0.17 nM | < 0.17 nM
5 | COc1cn2ncc(-c3cncc(N[C@H]4CNCC[C@@H]4F)n3)c2nc1C1CC1 [Compound 12a, 6-(5-cyclopropyl-6-methoxypyrazolo[1,5-a]pyrimidin-3-yl)-N-((3S,4S)-4-fluoropiperidin-3-yl)pyrazin-2-amine] | < 0.17 nM | < 0.17 nM |  | 
6 | COc1cn2ncc(-c3nc(N[C@H]4CNCC[C@@H]4F)c(F)cc3F)c2nc1C(C)(C)O [Compound 13, 2-(3-(3,5-difluoro-6-(((3S,4S)-4-fluoropiperidin-3-yl)amino)pyridin-2-yl)-6-methoxypyrazolo[1,5-a]pyrimidin-5-yl)propan-2-ol] |  |  | < 0.17 nM | < 0.17 nM
7 | COc1cn2ncc(-c3nc(N[C@H]4CNCC[C@@H]4F)c(C#N)cc3F)c2nc1C1CC1 [Compound 7, 6-(5-cyclopropyl-6-methoxypyrazolo[1,5-a]pyrimidin-3-yl)-5-fluoro-2-(((3S,4S)-4-fluoropiperidin-3-yl)amino)nicotinonitrile] |  |  | < 0.17 nM | < 0.17 nM
8 | COc1cn2ncc(-c3nc(N[C@H]4CNCC[C@@H]4F)ncc3F)c2nc1C1CC1 [Compound 15a, 4-(5-cyclopropyl-6-methoxypyrazolo[1,5-a]pyrimidin-3-yl)-5-fluoro-N-((3S,4S)-4-fluoropiperidin-3-yl)pyrimidin-2-amine] | 0.28 nM | < 0.17 nM |  | 
